Measured values as given in patent US20210179585A1, “CRYSTAL FORM OF ABEMACICLIB MESYLATE, PREPARATION METHOD THEREFOR AND PHARMACEUTICAL COMPOSITION THEREOF” (Hangzhou SoliPharma Co., Ltd., priority 2018, published 2021).

Assay: Form stability experiment of crystalline forms (XRD crystalline form test after storage)
Type: physicochemical
Conditions: for Test result after 30 day (XRD crystalline form): 20 mg placed at 60° C. or at room temperature under dry conditions for 30 days; for form stability on storage (form kept or changed, appearance): one month in a dry environment at room temperature and at 60° C.
Protocol: X-ray powder diffraction (XRPD): performed on a Bruker D8 Advance diffractometer. Samples are tested at room temperature. Testing conditions: 2θ scan range 3 to 40°, step size 0.02° and speed 0.2 s/step.
Form stability experiment of crystalline forms: Placed 20 mg abemaciclib mesylate in Preparation Example 1, abemaciclib mesylate Form 1, Form 2, Form 5, Form 6, and Form 8 of the present invention at 60° C. or at room temperature under dry conditions for 30 days, then carried out XRD crystalline form test.

Row | SMILES | Test result after 30 day (XRD crystalline form) (methanesulfonate) | form stability on storage (form kept or changed, appearance) (methanesulfonate) | also measured
1 | CCN1CCN(Cc2ccc(Nc3ncc(F)c(-c4cc(F)c5nc(C)n(C(C)C)c5c4)n3)nc2)CC1.CS(=O)(=O)O [Abemaciclib mesylate Form 1, N-(5-((4-ethylpiperazin-1-yl)methyl)pyridin-2-yl)-5-fluoro-4-(4-fluoro-1-isopropyl-2-methyl-1H-benzo[d]imidazol-6-yl)pyrimidin-2-amine methanesulfonate] | Form 1 | kept its form unchanged | Test result after 30 day (XRD crystalline form) (listed as Form 1, methanesulfonate): still kept their original crystalline forms
2 | CCN1CCN(Cc2ccc(Nc3ncc(F)c(-c4cc(F)c5nc(C)n(C(C)C)c5c4)n3)nc2)CC1.CS(=O)(=O)O [Abemaciclib mesylate Form 2, N-(5-((4-ethylpiperazin-1-yl)methyl)pyridin-2-yl)-5-fluoro-4-(4-fluoro-1-isopropyl-2-methyl-1H-benzo[d]imidazol-6-yl)pyrimidin-2-amine methanesulfonate] | Form 2 | kept its form unchanged | Test result after 30 day (XRD crystalline form) (listed as Form 2, methanesulfonate): still kept their original crystalline forms
3 | CCN1CCN(Cc2ccc(Nc3ncc(F)c(-c4cc(F)c5nc(C)n(C(C)C)c5c4)n3)nc2)CC1.CS(=O)(=O)O [Abemaciclib mesylate Form 5, N-(5-((4-ethylpiperazin-1-yl)methyl)pyridin-2-yl)-5-fluoro-4-(4-fluoro-1-isopropyl-2-methyl-1H-benzo[d]imidazol-6-yl)pyrimidin-2-amine methanesulfonate] | Form 5 | kept its form unchanged | Test result after 30 day (XRD crystalline form) (listed as Form 5, methanesulfonate): still kept their original crystalline forms

More lines, main results first:

Row | Test result after 30 day (XRD crystalline form) (methanesulfonate) | form stability on storage (form kept or changed, appearance) (methanesulfonate) | SMILES | also measured
4 | Form 6 | kept its form unchanged | CCN1CCN(Cc2ccc(Nc3ncc(F)c(-c4cc(F)c5nc(C)n(C(C)C)c5c4)n3)nc2)CC1.CS(=O)(=O)O [Abemaciclib mesylate Form 6, N-(5-((4-ethylpiperazin-1-yl)methyl)pyridin-2-yl)-5-fluoro-4-(4-fluoro-1-isopropyl-2-methyl-1H-benzo[d]imidazol-6-yl)pyrimidin-2-amine methanesulfonate] | Test result after 30 day (XRD crystalline form) (listed as Form 6, methanesulfonate): still kept their original crystalline forms
5 | Form 8 | kept its form unchanged | CCN1CCN(Cc2ccc(Nc3ncc(F)c(-c4cc(F)c5nc(C)n(C(C)C)c5c4)n3)nc2)CC1.CS(=O)(=O)O [Abemaciclib mesylate Form 8, N-(5-((4-ethylpiperazin-1-yl)methyl)pyridin-2-yl)-5-fluoro-4-(4-fluoro-1-isopropyl-2-methyl-1H-benzo[d]imidazol-6-yl)pyrimidin-2-amine methanesulfonate] | Test result after 30 day (XRD crystalline form) (listed as Form 8, methanesulfonate): still kept their original crystalline forms
6 | Amorphous |  | CCN1CCN(Cc2ccc(Nc3ncc(F)c(-c4cc(F)c5nc(C)n(C(C)C)c5c4)n3)nc2)CC1.CS(=O)(=O)O [Abemaciclib mesylate, N-(5-((4-ethylpiperazin-1-yl)methyl)pyridin-2-yl)-5-fluoro-4-(4-fluoro-1-isopropyl-2-methyl-1H-benzo[d]imidazol-6-yl)pyrimidin-2-amine methanesulfonate] | form stability on storage (form kept or changed, appearance) (listed as amorphos abemaciclib mesylate, methanesulfonate): weak crystalline state and discoloration appeared; form stability on storage (form kept or changed, appearance) (listed as amorphous abemaciclib mesylate, methanesulfonate): weak crystalline state and discoloration appeared
